“Also recorded” adds a separate entry of the source. *1 amine or outer side, *2 acyl side, *3 side chain or, on linkers, in order; H or OH if unused. Where a SMILES comes first, the peptide text is derived from it. [ ]: non-standard residue; d: D form. The star is where a group is joined. X3 = C[C@@H](CN(C)C(=O)CCCCCNC(=O)CCCC[C@@H]1SC[C@@H]2NC(=O)N[C@@H]21)N*; X2 = C[C@@H](CN(C)C(=O)CCC[n+]1c2cc(N(C)C)ccc2cc2ccc(N(C)C)cc21)N*; X1 = CCC(=O)C[C@H](O)C[C@@H](C)C[C@H](N[*:1])C(=O)[*:2]; Hexenoyl(2E,4S-Me) = CC[C@H](C)/C=C/C(=O)*; Leu(3R-OH) = CC(C)[C@@H](O)[C@H](N)C(=O)O; NH((S)CH(Me)CH2NMe2) = C[C@@H](CN(C)C)N*; Pro(4S-Me) = C[C@@H]1CN[C@H](C(=O)O)C1; NH((S)CH(CH3)CH2NHMe) = CNC[C@H](C)N*; Aib = CC(C)(N)C(=O)O; βAla = NCCC(=O)O
Legend:
[1] = Reverse-phase C18 HPLC elution time as measure of hydrophobicity; assay type: physicochemical; settings: chromatographic; semi-prep C18 column (Gemini 5 μm 110A, 250 × 10 mm), gradient 50% methanol to 100% methanol in 50 min, 1 ml per min, A254; approximate time
Procedure: LA and LB were purified from P. lilacum as described. LA/LB mixture (Sigma) was also purchased from Sigma. LB C-terminus were modified by linking biotin and Atto495. Around 0.4 µmol of LB and 8 µmol of amine-reactive EZ-Link™ NHS-LC-Biotin (Invitrogen; molar ratio: 1:20) were mixed in 2 mL of PBS buffer (pH = 7.2) and reacted for continuous stirring 4 h at room temperature. Then, the reaction sample was analyzed and purified by semi-prep high-performance liquid chromatography (HPLC; Shimadzu) C18 column (Gemini 5 μm 110A, 250 × 10 mm) with gradient elution of 50% methanol to 100% methanol in 50 min. The flow rate was 1 ml per min. The LB-biotin conjugate fraction was dried at room temperature with a rotary vacuum evaporator (Heidolph).
The reaction of LB with amine-reactive Atto495 NHS ester (Sigma) was conducted in DMSO. Firstly, Atto495 NHS ester (3 mM), LB (1 mM), and triethylamine (100 mM) were mixed in DMSO in a 0.2 mL reaction volume and reacted at room temperature for 4 h with continuous stirring while protected from light. The reaction solution was applied to semi-prep HPLC to obtain the conjugate of LB-Atto495 as described above, and the LB-Atto495 was dried for use.
The pure LB was reacted with amine-reactive Atto495 NHS ester in DMSO. The reaction solution was applied to semi-prep HPLC. The conjugate of LB-Atto495 was eluded at 29 min (Fig. 2b). […] On the basis of elution times from the HPLC C18 column, the hydrophobicity of four compounds is LB < LA < LB-Atto495 < LB-biotin.

[2] = tested on: P. falciparum gametocytes; assay: Distribution of LB-Atto495 in live gametocytes by fluorescence microscopy; assay type: cell-based, Plasmodium falciparum; settings: LB-Atto495 (1 µl of 1 mM in 100 µl) incubated 6 h at room temperature, fluorescent microscope
Procedure: The 15-day-old cultured P. falciparum was collected from a six-well plate. After centrifugation (300 g for 3 min), the cells were washed with 1 ml of PBS three times at room temperature. About 10 μl of cells was suspended in 100 μl of PBS, and 1 μl of LB-Atto495 (1 mM in DMSO) was added and mixed. The cells were incubated at room temperature in the dark for 6 h. The mixture was centrifuged at 300 g for 3 min to collect cells, which were washed three times with 200 μl of PBS. Finally, the cells were deposited on slides to make a blood smear and fixed with methanol. The vector shield antifade mounting medium for fluorescence (VectorLabs, CA) was dropped on the slides. The slides were covered with coverslips and examined under a fluorescent microscope (Nikon Eclipse Ti-S).

[3] = Cytotoxicity assay, MTT, HEK293; assay type: cell-based, human; settings: 24 h incubation at 37 °C, three replicates
Procedure: (§1) Two methods and two types of cells were used to analyze the general cytotoxicity of small molecules. First, MTT (3-(4,5-dimethylthiazol-2-yl)-2,5-diphenyl tetrazolium bromide; Thermo-fisher) and human embryonic kidney 293 (HEK293) were used in cytotoxicity assays. About 20,000 HEK293 cells in 200 µl of culture medium [Dulbecco’s modified eagle medium (DMEM) with high glutamine and 10% fetal bovine serum] were seeded per well in 96-well microplates. About 1 µl of the compounds in DMSO at various dilutions was added into each well to obtain final concentrations of 0, 10, 100, and 1000 ng/mL. Three replicates were conducted for each concentration. Following incubation at 37 °C with 5% CO2 for 24 h, 10 µL of MTT (5 mg/mL in PBS) was added to each well and incubated for 4 h at 37 °C with 5% CO2. All but 25 µL of the medium was removed from the wells, and 100 µL of DMSO was added to each well and incubated at 37 °C for 10 min to dissolve formazan crystals for measurement. Optical density was measured at an absorbance wavelength of 540 nm.

[4] = tested on: human embryonic kidney 293 (HEK293) cells; assay: Cytotoxicity assay, MTT, HEK293; assay type: cell-based
Procedure: as §1

[5] = tested on: K562 cell line (human immortalized myelogenous leukemia cell); assay: Cell proliferation assay, CCK-8 kit, K562; assay type: cell-based
Procedure: Second, the CCK-8 kit (Sigma) and K562 cell line (human immortalized myelogenous leukemia cell) were used to determine the inhibition of a compound against cell proliferation. About 20,000 cells in 200 µl of culture medium (RMPI-1640 with 10% fetal bovine serum) were seeded per well in 96-well microplates, and then a series of dilutions of the compound from 0 to 1000 ng/ml was added to the medium. The cells were maintained at 37 °C and 5% CO2 for 48 h, and then 20 μl of the CCK-8 solution was added to each well of the plate. The plate was incubated for 1 h, and the A450 was measured using a microplate.

[6] = tested on: O+ human red blood cells; assay: Hemolysis assay; assay type: cell-based; settings: 100 µM, 10% human RBC suspension in PBS pH 7.4, 3 h at 37 °C, A540, triplicate, p > 0.9
Procedure: About 200 µL of O + human red blood cells were washed three times in PBS (pH 7.4) and then suspended with 1 ml of PBS. Then, 0.3 ml of suspension was diluted with 3 mL of PBS to obtain a 10% suspension. All tested compounds were dissolved in DMSO to prepare a series of dilutions of 1 nM, 10 nM, 100 nM, 1 µM, 10 µM, and 100 µM. The erythrocyte suspension (100 μl per well) was added to a 96-well plate, and the samples were rapidly stirred and incubated at 37 °C with periodic stirring during a 3-h incubation period. The solution was then centrifuged at 2,000 rpm for 5 min. The absorbance of the supernatant was measured at 540 nm using a microplate, and the hemolytic ratio (%) was calculated by comparison with the 100% hemolytic activity caused by distilled water as maximal hemolytic control. The hemolytic % developed by the PBS control was subtracted from all groups. Each experiment was performed in triplicate.

[7] = tested on: Hela cells; settings: read-out: IC50 against Hela cells; cited from earlier work
Procedure: Leucinostatins have antimicrobial activity against gram-positive bacteria, including Staphylococcus albus, Bacillus subtilis, Sarcina letter, Streptococcus pyrogens, Streptococcus faecalis, and Mycobacterium species, with IC50 values ranging from 2.5 to 100 μM and against some fungal strains with minimal inhibitory concentrations of 10–25 μM [9–11]. In addition, leucinostatins are known as mycotoxins. The IC50 of leucinostatin Α (LA) to MRC-5 (human fetal lung fibroblast cells) is 2 μΜ [12]. […] The IC50 of LA against H ...

[8] = tested on: mice; parameters: method as in 2 sources, ref 9 = [9]; PMID 4783199; doi:10.7164/antibiotics.26.157; 9. Arai T Mikami Y Fukushima K Utsumi T Yazawa K A new antibiotic, leucinostatin, derived from Penicillium lilacinum J Antibiot (Tokyo) 1973 26 157 161 10.7164/antibiotics.26.157 4783199 Arai T, Mikam ||| ref 10 (Mikami et al.); settings: intraperitoneal injection; cited from earlier work
[9] = tested on: P. falciparum transmission to mosquitoes; assay: Standard membrane feeding assay (SMFA), malaria transmission-blocking activity; assay type: in vivo, Plasmodium falciparum (NF54) in Anopheles gambiae (G3); settings: same set of cultured parasites and mosquitoes, Fig. 3d
Procedure: As we described previously, we maintained An. gambiae (G3 strain) at 27 °C with 80% humidity and a 12 h day/night cycle. Larvae were fed fish food for koi, adult mosquitoes were maintained with 10% sugar in water, and female mosquitoes were fed with purchased human blood to lay eggs. Eggs were collected 48 h after blood-feeding with wet filter papers and hatched in pure water.
P. falciparum (NF54) was cultured in the lab with 4% O + -type red blood cells in a complete Roswell Park Memorial Institute (RPMI) 1640 medium with 10% human AB + serum and 12.5 μg/ml of hypoxanthine in a candle jar at 37 °C. Then, 15-day-old cultured P. falciparum-infected cells were collected through centrifugation (300 g for 3 min), and about 100 μl of pellet were resuspended in 1.5 ml fresh AB + -type serum and mixed with 1.4 ml O + -type red blood cells, containing about 0.2% stage V gametocytes. Each candidate compound was dissolved in dimethylsulfoxide (DMSO) and diluted with DMSO to obtain different concentrations. About 2 μl of candidate solution was mixed with 298 μl of P. falciparum-infected blood prepared above and was used to feed 60–80 3–5-day-old An. gambiae with feeders covered with parafilm at 37 °C for 30 min. […] The midguts were stained with 0.1% mercury dibromofluorescein disodium salt in phosphate-buffered saline (PBS), and the oocysts were counted under a light microscope.

CCC(=O)C[C@H](O)C[C@@H](C)C[C@H](NC(=O)[C@@H]1C[C@H](C)CN1C(=O)/C=C/[C@@H](C)CC)C(=O)N[C@H](C(=O)NC(C)(C)C(=O)N[C@@H](CC(C)C)C(=O)N[C@@H](CC(C)C)C(=O)NC(C)(C)C(=O)NC(C)(C)C(=O)NCCC(=O)N[C@@H](C)CN(C)C(=O)CCC[n+]1c2cc(N(C)C)ccc2cc2ccc(N(C)C)cc21)[C@H](O)C(C)C [LB-Atto495] ({Hexenoyl(2E,4S-Me)}-[Pro(4S-Me)][X1][Leu(3R-OH)][Aib]LL[Aib][Aib][βAla]-X2)
HPLC elution time (hydrophobicity) [1]: 29 min
Location in live P. falciparum gametocytes [2]: colocalized with mitochondria; also recorded: binds mitochondria specifically in parasites

O=C(CCCC[C@@H]1SC[C@@H]2NC(=O)N[C@@H]21)NCCCCCC(=O)ON1C(=O)CC(S(=O)(=O)[O-])C1=O.[Na+] (some centres unmarked) [sulfo-NHS-LC-Biotin]
HPLC elution time (hydrophobicity) [1]: ~16.5 min

CCC(=O)C[C@H](O)C[C@@H](C)C[C@H](NC(=O)[C@@H]1C[C@H](C)CN1C(=O)/C=C/[C@@H](C)CC)C(=O)N[C@H](C(=O)NC(C)(C)C(=O)N[C@@H](CC(C)C)C(=O)N[C@@H](CC(C)C)C(=O)NC(C)(C)C(=O)NC(C)(C)C(=O)NCCC(=O)N[C@@H](C)CN(C)C)[C@H](O)C(C)C [LA, leucinostatin A] ({Hexenoyl(2E,4S-Me)}-[Pro(4S-Me)][X1][Leu(3R-OH)][Aib]LL[Aib][Aib][βAla]-{NH((S)CH(Me)CH2NMe2)})
HPLC elution time (hydrophobicity) [1]: ~28.3 min
IC50 [3]: 89.6 nM
Density of living cells versus 0 control, HEK293 ([4]; 10 ng/mL, p > 0.7): no significant difference
Reduction of cell proliferation, HEK293 ([4]; 100 nM, 24 h): 38%
Density of living cells versus 0 control, K562 ([5]; 10 ng/mL, CCK-8, p > 0.6): no significant difference
Reduction of cell proliferation, K562 ([5]; 100 nM, CCK-8, 48 h): 43.7%
Hemolysis of red blood cells [6]: not significantly different
Hemolysis of red blood cells ([6]; listed as leucinostatin A): did not lyse erythrocytes
IC50 [7]: ~40 nM
LD50 [8]: 1.6 mg/kg

CCC(=O)C[C@H](O)C[C@@H](C)C[C@H](NC(=O)[C@@H]1C[C@H](C)CN1C(=O)/C=C/[C@@H](C)CC)C(=O)N[C@H](C(=O)NC(C)(C)C(=O)N[C@@H](CC(C)C)C(=O)N[C@@H](CC(C)C)C(=O)NC(C)(C)C(=O)NC(C)(C)C(=O)NCCC(=O)N[C@@H](C)CN(C)C(=O)CCCCCNC(=O)CCCC[C@@H]1SC[C@@H]2NC(=O)N[C@@H]21)[C@H](O)C(C)C [LB-biotin] ({Hexenoyl(2E,4S-Me)}-[Pro(4S-Me)][X1][Leu(3R-OH)][Aib]LL[Aib][Aib][βAla]-X3)
Blocking of P. falciparum transmission to mosquitoes at 10 nM [9]: did not inhibit
HPLC elution time (hydrophobicity) [1]: ~31.5 min

CCC(=O)C[C@H](O)C[C@@H](C)C[C@H](NC(=O)[C@@H]1C[C@H](C)CN1C(=O)/C=C/[C@@H](C)CC)C(=O)N[C@H](C(=O)NC(C)(C)C(=O)N[C@@H](CC(C)C)C(=O)N[C@@H](CC(C)C)C(=O)NC(C)(C)C(=O)NC(C)(C)C(=O)NCCC(=O)N[C@@H](C)CNC)[C@H](O)C(C)C [LB, leucinostatin B] ({Hexenoyl(2E,4S-Me)}-[Pro(4S-Me)][X1][Leu(3R-OH)][Aib]LL[Aib][Aib][βAla]-{NH((S)CH(CH3)CH2NHMe)})
Blocking of P. falciparum transmission to mosquitoes at 10 nM [9]: completely blocked
HPLC elution time (hydrophobicity) [1]: ~27.5 min
